Earlier results in US20240124437A1, “INJECTABLE LURASIDONE SUSPENSION AND PREPARATION METHOD THEREFOR” (Sichuan Kelun Pharmaceutical Research Institute Co., Ltd., priority 2021, published 2024).

Conditions: oral tablets

Which oral bioavailability does the source give for O=C1[C@@H]2[C@H]3CC[C@H](C3)[C@@H]2C(=O)N1C[C@@H]1CCCC[C@H]1CN1CCN(c2nsc3ccccc23)CC1 [lurasidone] here?
The oral bioavailability was 9%-19%.
